# Reference: PMC8746493, “Co-Inhibition of P-gp and Hsp90 by an Isatin-Derived Compound Contributes to the Increase of the Chemosensitivity of MCF7/ADR-Resistant Cells to Doxorubicin” (Molecules, 2021)
# Target: T1, Hsp90α (Homo sapiens, UniProt P07900)
# T1 construct: gene HSP90AA1; full length protein
# Experiment: SPR (Biacore […], immobilized recombinant Hsp90α)
# Format: binding
compound,measurement,value
"O=C(CN1C(=O)NC(c2ccccc2)(c2ccccc2)C1=O)NN=C1C(=O)Nc2ccc(F)cc21 [compound 16, HAA2021]",Kd,41.2 ± 2.1 nM
